Laboratory results as given in US8058009B2, “Target protein and target gene in drug designing and screening method” (Reverse Proteomics Research Institute Co., Ltd., priority 2004, dated 2011).

Key:
FLJ14583-derived protein = target: T1, FLJ14583-derived protein (Homo sapiens, UniProt Q12816); test: Biacore S51 surface plasmon resonance binding to FLJ14583-derived protein
T1 construct: made in house; host or cells: wheat germ cell-free synthesis system (PROTEIOS, Toyobo)
T1 sequence (Q12816 1-706 isoform Q12816-2): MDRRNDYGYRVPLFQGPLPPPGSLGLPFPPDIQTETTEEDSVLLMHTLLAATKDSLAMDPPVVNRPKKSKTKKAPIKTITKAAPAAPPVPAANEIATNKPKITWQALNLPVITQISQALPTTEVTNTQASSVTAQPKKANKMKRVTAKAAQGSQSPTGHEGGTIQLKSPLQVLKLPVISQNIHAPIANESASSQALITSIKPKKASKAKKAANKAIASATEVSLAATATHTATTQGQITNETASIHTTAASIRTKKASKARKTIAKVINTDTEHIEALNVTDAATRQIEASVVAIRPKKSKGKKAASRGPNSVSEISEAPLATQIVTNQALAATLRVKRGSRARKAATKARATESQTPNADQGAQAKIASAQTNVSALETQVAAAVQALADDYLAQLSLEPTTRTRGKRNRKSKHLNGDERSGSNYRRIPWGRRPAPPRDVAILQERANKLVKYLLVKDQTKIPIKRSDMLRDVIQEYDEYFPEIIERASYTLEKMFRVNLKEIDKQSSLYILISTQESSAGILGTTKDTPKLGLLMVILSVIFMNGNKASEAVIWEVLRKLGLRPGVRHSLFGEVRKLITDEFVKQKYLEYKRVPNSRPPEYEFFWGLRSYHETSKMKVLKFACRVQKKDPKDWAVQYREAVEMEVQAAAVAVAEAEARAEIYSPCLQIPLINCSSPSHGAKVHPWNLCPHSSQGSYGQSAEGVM
Description: (§1) A desired gene of a human full-length cDNA clone was BP-reacted with the PCR cloning vector Gateway pDONR201 using the Invitrogen Gateway system per the kit protocol to yield an entry vector. […]
(§2) The surface of the CM5 sensor chip for S51 commercially available from Biacore Company was subjected to an NTA treatment with 1 M EDC, 1.33 M NHS and 16 mg/ml AB-NTA (pH 9.2) to prepare an NTA sensor chip for S51. […] A correction for the effect of DMSO contained in the compound solutions and running buffer (solvent correction) was performed on the basis of measured results from separately prepared solutions mimicking the running buffer, and containing 3.8 to 5.1% of DMSO (8 points). The compound characterization assay program for Biacore S51 was performed to measure the interactions between immobilized ligands (proteins) and analytes (compounds; 62.5 μM to 0.244 μM), and the results were analyzed using a dedicated software program. […]

FLJ10889-derived protein = target: T2, FLJ10889-derived protein (Homo sapiens, UniProt Q7L7V1, A496G/L459S/P686L/V123M); test: Biacore S51 surface plasmon resonance binding to FLJ10889-derived protein
T2 construct: made in house; host or cells: wheat germ cell-free synthesis system (PROTEIOS, Toyobo)
T2 sequence (Q7L7V1 1-743 V123M/L459S/A496G/P686L): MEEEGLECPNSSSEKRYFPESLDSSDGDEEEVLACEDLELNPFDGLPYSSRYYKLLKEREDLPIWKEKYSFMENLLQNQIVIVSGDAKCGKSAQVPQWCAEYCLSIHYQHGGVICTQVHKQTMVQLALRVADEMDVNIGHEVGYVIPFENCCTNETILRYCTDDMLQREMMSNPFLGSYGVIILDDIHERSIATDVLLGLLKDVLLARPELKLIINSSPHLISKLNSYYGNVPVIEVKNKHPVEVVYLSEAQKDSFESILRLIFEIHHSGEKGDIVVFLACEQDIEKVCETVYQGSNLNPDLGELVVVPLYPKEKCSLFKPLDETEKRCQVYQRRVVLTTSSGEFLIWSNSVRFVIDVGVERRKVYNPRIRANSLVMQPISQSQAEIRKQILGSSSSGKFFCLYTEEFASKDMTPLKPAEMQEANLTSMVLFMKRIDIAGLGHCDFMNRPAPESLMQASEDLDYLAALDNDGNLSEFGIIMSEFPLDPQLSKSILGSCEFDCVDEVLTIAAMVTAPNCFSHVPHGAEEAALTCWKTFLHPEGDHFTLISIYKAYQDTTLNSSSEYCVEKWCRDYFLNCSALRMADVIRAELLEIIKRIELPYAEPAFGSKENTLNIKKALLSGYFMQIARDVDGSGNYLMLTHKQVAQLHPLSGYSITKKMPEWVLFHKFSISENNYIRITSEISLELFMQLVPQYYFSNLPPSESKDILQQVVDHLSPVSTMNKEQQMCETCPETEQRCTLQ
Description: as §1, §2

FLJ10335-derived protein = target: T3, FLJ10335-derived protein (Homo sapiens, UniProt Q9NW38, S77P); test: Biacore S51 surface plasmon resonance binding to FLJ10335-derived protein
T3 construct: made in house; host or cells: wheat germ cell-free synthesis system (PROTEIOS, Toyobo)
T3 sequence (Q9NW38 1-375 S77P): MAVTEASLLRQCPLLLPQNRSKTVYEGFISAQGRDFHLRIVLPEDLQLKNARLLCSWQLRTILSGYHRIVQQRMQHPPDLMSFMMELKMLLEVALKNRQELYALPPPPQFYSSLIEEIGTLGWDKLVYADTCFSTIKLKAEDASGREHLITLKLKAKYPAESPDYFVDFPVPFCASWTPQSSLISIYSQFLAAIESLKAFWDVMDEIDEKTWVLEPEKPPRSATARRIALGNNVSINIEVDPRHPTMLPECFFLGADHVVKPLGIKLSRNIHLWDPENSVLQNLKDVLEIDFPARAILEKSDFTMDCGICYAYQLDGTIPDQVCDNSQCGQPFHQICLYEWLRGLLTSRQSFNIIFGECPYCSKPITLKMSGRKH
Description: as §1, §2

[1] = tested on: mutant SOD-transgenic mouse showing ALS-like symptoms; details: intraperitoneally administered; cited from earlier work
FLJ11045-derived protein = target: T4, FLJ11045-derived protein (Homo sapiens, UniProt Q9BXT8, E1380K); test: Biacore S51 surface plasmon resonance binding to FLJ11045-derived protein
T4 construct: made in house; host or cells: wheat germ cell-free synthesis system (PROTEIOS, Toyobo)
T4 sequence (Q9BXT8 949-1581 isoform Q9BXT8-4 E1338K): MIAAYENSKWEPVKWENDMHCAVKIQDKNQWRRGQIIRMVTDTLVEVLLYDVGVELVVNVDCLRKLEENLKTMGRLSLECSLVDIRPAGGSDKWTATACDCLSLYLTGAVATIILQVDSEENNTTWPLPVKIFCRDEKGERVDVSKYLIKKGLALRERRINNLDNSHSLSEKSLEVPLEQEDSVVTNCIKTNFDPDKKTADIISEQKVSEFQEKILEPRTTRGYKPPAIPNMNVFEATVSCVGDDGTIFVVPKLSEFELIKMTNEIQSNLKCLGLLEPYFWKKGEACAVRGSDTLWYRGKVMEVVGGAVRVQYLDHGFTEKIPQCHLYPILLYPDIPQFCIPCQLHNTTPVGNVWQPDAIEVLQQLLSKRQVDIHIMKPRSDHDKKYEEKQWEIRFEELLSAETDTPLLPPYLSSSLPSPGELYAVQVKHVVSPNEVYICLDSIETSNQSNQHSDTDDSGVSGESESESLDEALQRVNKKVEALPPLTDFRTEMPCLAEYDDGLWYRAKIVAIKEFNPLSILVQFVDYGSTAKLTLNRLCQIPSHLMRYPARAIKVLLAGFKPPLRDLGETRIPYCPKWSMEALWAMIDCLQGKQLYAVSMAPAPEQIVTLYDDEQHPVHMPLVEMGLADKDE
Excerpt: A desired gene of a human full-length cDNA clone was BP-reacted with the PCR cloning vector Gateway pDONR201 using the Invitrogen Gateway system per the kit protocol to yield an entry vector. As the destination vector for the Gateway system, a Gateway cassette having a Gateway recombinant sequence was introduced to allow the utilization of the Gateway system on the basis of pEU3-NII (Toyobo), which matches with a cell-free protein synthesis system (PROTEIOS) of Toyobo Co., Ltd., which employs a wheat germ extract, and a double tag destination vector modified using the PCR method to allow the expression of a peptide having a histidine tag and a FLAG tag sequence in the N-terminal region of the expressed protein was prepared.
The prepared double tag destination vector and entry vector were […] using the Invitrogen Gateway system per the protocol and the Escherichia coli competent cell DH5α was transformed therewith; a clone incorporating the expression vector was selected. A plasmid was prepared from the obtained clone using the QIAfilter Midi kit (QUIAGEN) per the kit protocol. The plasmid obtained was subjected to phenol/chloroform treatment per the protocol for PROTEIOS (Toyobo) to inactivate the RNase to yield a purified expression plasmid.
A recombinant protein was synthesized using a cell-free protein synthesis system (PROTEIOS) of Toyobo Co., Ltd., which employs a wheat germ extract. Subsequently, mRNA was prepared from the expression plasmid acquired by the method described in section 1 above per the protocol for PROTEIOS. With 20 μg of the mRNA acquired, a protein was synthesized per the protocol for PROTEIOS using two wells of a 96-well microtiter plate. The protein synthesized was subjected to high-speed centrifugation, the precipitate was removed, and the resulting soluble fraction was purified using ANTI-FLAG M2 Affinity Gel (SIGMA Company) having an anti-FLAG tag antibody immobilized hereto per the protocol, to yield a purified protein.
as §2

FLJ12502-derived protein = target: T5, FLJ12502-derived protein (Homo sapiens, UniProt Q7Z3D6); test: Biacore S51 surface plasmon resonance binding to FLJ12502-derived protein
T5 construct: made in house; host or cells: wheat germ cell-free synthesis system (PROTEIOS, Toyobo)
T5 sequence (Q7Z3D6 29-616): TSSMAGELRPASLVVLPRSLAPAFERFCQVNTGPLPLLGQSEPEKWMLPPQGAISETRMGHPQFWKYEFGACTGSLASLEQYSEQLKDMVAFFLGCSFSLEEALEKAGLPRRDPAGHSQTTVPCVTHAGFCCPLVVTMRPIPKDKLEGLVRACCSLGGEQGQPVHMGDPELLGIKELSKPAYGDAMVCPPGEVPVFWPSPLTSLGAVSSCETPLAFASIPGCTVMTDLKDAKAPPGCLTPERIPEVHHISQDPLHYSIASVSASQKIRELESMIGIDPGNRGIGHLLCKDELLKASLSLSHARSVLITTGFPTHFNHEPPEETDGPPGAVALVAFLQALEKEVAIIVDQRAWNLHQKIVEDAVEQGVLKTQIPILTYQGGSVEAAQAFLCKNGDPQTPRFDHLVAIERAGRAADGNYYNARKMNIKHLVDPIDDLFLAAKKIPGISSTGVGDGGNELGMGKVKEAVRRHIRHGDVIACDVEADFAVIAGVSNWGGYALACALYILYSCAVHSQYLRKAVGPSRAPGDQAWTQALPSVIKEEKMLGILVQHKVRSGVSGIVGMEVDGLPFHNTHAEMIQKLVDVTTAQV
Description: as §1, §2

Question: With `Cc1onc(-c2c(Cl)cccc2Cl)c1C(=O)N[C@@H]1C(=O)N2[C@@H]1SC(C)(C)[C@@H]2C(=O)O` [dicloxacillin] as the compound, how does the Kd (FLJ14583-derived protein; Biacore S51, immobilized FLJ14583-derived protein, analyte 62.5 μM to 0.244 μM, read-out: binding dissociation constant Kd) read?
Answer: 23 µM

Question: What about the “interaction with the protein (binding level dose-proportional, saturated at high doses)” value (“interaction with the protein” below) (FLJ14583-derived protein; FLJ14583-derived protein, Biacore S51) of the same compound?
Answer: interact specifically

Question: Which “interaction with the protein” value (FLJ10889-derived protein) does the source give for `CC[C@@]1(O)C[C@H](O[C@H]2C[C@H](N(C)C)[C@H](O[C@H]3C[C@H](O)[C@H](O[C@H]4CCC(=O)[C@H](C)O4)[C@H](C)O3)[C@H](C)O2)c2c(cc3c(c2O)C(=O)c2c(O)cccc2C3=O)[C@H]1C(=O)OC` [aclarubicin] here?
Answer: interact specifically

Question: With `CC(C)C[C@H](NC(=O)[C@@H](O)[C@H](N)Cc1ccccc1)C(=O)O` [ubenimex] as the compound, how does the “interaction with the protein” value (FLJ10335-derived protein) read?
Answer: interact specifically

Question: Which results are given for `CO/N=C(\C(=O)N[C@@H]1C(=O)N2C(C(=O)O)=C(CSc3nc(=O)c(=O)[nH]n3C)CS[C@H]12)c1csc(N)n1` [ceftriaxone]?
Answer: expression of GLT1 in the spinal cord [1]: increased; muscle strength [1]: increase in the muscle strength; neuron number [1]: recovery of neuron number

Question: For `CC1=C(C(=O)O)N2C(=O)[C@@H](NC(=O)[C@H](N)c3ccc(O)cc3)[C@H]2SC1` [cefadroxil], which Kd (FLJ11045-derived protein; Biacore S51, immobilized FLJ11045-derived protein, analyte 62.5 μM to 0.244 μM, read-out: binding dissociation constant Kd) is on record?
Answer: 11.5 µM

Question: What about the “interaction with the protein” value (FLJ11045-derived protein; FLJ11045-derived protein, Biacore S51) of the same compound?
Answer: interact specifically

Question: With `C[C@H]1[C@H](C)CC[C@]2(C(=O)O)CC[C@]3(C)C(=CC[C@@H]4[C@@]5(C)CC[C@H](O)C(C)(C)[C@@H]5CC[C@]43C)[C@H]12` [ursolic acid] as the compound, how does the “interaction with the protein” value (FLJ12502-derived protein) read?
Answer: interact specifically
